Measurements: patent US11667649B2, “Heteroaromatic macrocyclic ether chemotherapeutic agents” (Nuvalent, Inc., priority 2020, dated 2023)

Test system: TPM3-NTRK1-wt IC50 / primary target (e.g. CD74-ROS1-wt) IC50, Ba/F3 cells
Test: Cell assay TRKA selectivity (TRKA potency divided by primary target potency)
Format: cell-based
Details: for TPM3-NTRK1-wt/CD74-ROS1-G2032R: TRKA selectivity ratio: TPM3-NTRK1-wt IC50 / CD74-ROS1-G2032R IC50, Ba/F3 cells; for TPM3-NTRK1-wt/CD74-ROS1-wt: TRKA selectivity ratio: TPM3-NTRK1-wt IC50 / CD74-ROS1-wt IC50, Ba/F3 cells; for TPM3-NTRK1-wt/EML4-ALK-L1196M-G1202R: TRKA selectivity ratio: TPM3-NTRK1-wt IC50 / EML4-ALK-L1196M-G1202R IC50, Ba/F3 cells; for TPM3-NTRK1-wt/EML4-ALK-wt: TRKA selectivity ratio: TPM3-NTRK1-wt IC50 / EML4-ALK-wt IC50, Ba/F3 cells
In short: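 Ratio of TRKA to primary-target cellular IC50 (e.g. TPM3-NTRK1-wt/CD74-ROS1-wt), grouped into bins A >30, B >10, C ≥1, D <1. Each IC50 came from engineered Ba/F3 fusion lines grown without IL-3, dosed for 72 h and read as CellTiter-Glo luminescence, with a four-parameter logistic fit.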

With `CCn1ncc2c1-c1cnc(N)c(c1)O[C@H](C)c1cc(F)ccc1-c1nn(C)cc1C2` [Example 1, (19R)-3-ethyl-16-fluoro-10,19-dimethyl-20-oxa-3,4,10,11,23-pentaazapentacyclo[19.3.1.0^2,^60^8,^12.0^13,^18]pentacosa-1(24),2(6),4,8,11,13,15,17,21(25),22-decaen-22-amine] the TPM3-NTRK1-wt/CD74-ROS1-G2032R was “A (bin A for very high selectivity, ratio>30-fold)”, the TPM3-NTRK1-wt/CD74-ROS1-wt was “A (bin A for very high selectivity, ratio>30-fold)” and the TPM3-NTRK1-wt/EML4-ALK-L1196M-G1202R was “A (bin A for very high selectivity, ratio>30-fold)”. For the same molecule, the TPM3-NTRK1-wt/EML4-ALK-wt was “A (bin A for very high selectivity, ratio>30-fold)”.

With `CCc1ncn2c1-c1cnc(N)c(c1)O[C@H](C)c1cc(F)ccc1-c1nn(C)cc1C2` [Example 50, (19R)-3-ethyl-16-fluoro-10,19-dimethyl-20-oxa-4,6,10,11,23-pentaazapentacyclo[19.3.1.0^2,^6.0^8,^12.0^13,^18]pentacosa-1(24),2,4,8,11,13,15,17,21(25),22-decaen-22-amine] the TPM3-NTRK1-wt/CD74-ROS1-G2032R was “A (bin A for very high selectivity, ratio>30-fold)”, the TPM3-NTRK1-wt/CD74-ROS1-wt was “A (bin A for very high selectivity, ratio>30-fold)” and the TPM3-NTRK1-wt/EML4-ALK-L1196M-G1202R was “B (bin B for high selectivity, ratio>10-fold)”. For the same molecule, the TPM3-NTRK1-wt/EML4-ALK-wt was “A (bin A for very high selectivity, ratio>30-fold)”.

With `C[C@H]1Oc2cc(cnc2N)-c2c(C#N)nn(C)c2Cc2cc(C(F)(F)F)nn2-c2ccc(F)cc21` [Example 104, (19R)-22-amino-16-fluoro-5,19-dimethyl-10-(trifluoromethyl)-20-oxa-4,5,11,12,23-pentaazapentacyclo[19.3.1.0^2,^6.0^8,^12.0^13,^18]pentacosa-1(24),2(6),3,8,10,13,15,17,21(25),22-decaene-3-carbonitrile] the TPM3-NTRK1-wt/CD74-ROS1-G2032R was “A (bin A for very high selectivity, ratio>30-fold)”, the TPM3-NTRK1-wt/CD74-ROS1-wt was “A (bin A for very high selectivity, ratio>30-fold)” and the TPM3-NTRK1-wt/EML4-ALK-L1196M-G1202R was “C (bin C for moderate selectivity, ratio≥1)”. The TPM3-NTRK1-wt/EML4-ALK-wt was “A (bin A for very high selectivity, ratio>30-fold)”.

`CCn1ncc2c1-c1cnc(N)c(c1)O[C@H](C)c1cc(F)ccc1-c1nocc1C2` [Example 99, (19R)-3-ethyl-16-fluoro-19-methyl-10,20-dioxa-3,4,11,23-tetraazapentacyclo[19.3.1.0^2,^6.0^8,^12.0^13,^18]pentacosa-1(24),2(6),4,8,11,13,15,17,21(25),22-decaen-22-amine] was tested, and the TPM3-NTRK1-wt/CD74-ROS1-G2032R was “A (bin A for very high selectivity, ratio>30-fold)”, the TPM3-NTRK1-wt/CD74-ROS1-wt was “A (bin A for very high selectivity, ratio>30-fold)” and the TPM3-NTRK1-wt/EML4-ALK-L1196M-G1202R was “C (bin C for moderate selectivity, ratio≥1)”. The TPM3-NTRK1-wt/EML4-ALK-wt was “B (bin B for high selectivity, ratio>10-fold)”.

In the case of `CCn1nc(Cl)c2c1-c1cnc(N)c(c1)O[C@H](C)c1cc(F)ccc1-c1nn(C)cc1C2` [Example 73, (19R)-5-chloro-3-ethyl-16-fluoro-10,19-dimethyl-20-oxa-3,4,10,11,23-pentaazapentacyclo[19.3.1.0^2,^6.0^8,^12.0^13,^18]pentacosa-1(24),2(6),4,8,11,13,15,17,21(25),22-decaen-22-amine], the TPM3-NTRK1-wt/CD74-ROS1-G2032R is reported as “A (bin A for very high selectivity, ratio>30-fold)”, the TPM3-NTRK1-wt/CD74-ROS1-wt is reported as “A (bin A for very high selectivity, ratio>30-fold)” and the TPM3-NTRK1-wt/EML4-ALK-L1196M-G1202R is reported as “B (bin B for high selectivity, ratio>10-fold)”. The TPM3-NTRK1-wt/EML4-ALK-wt was “A (bin A for very high selectivity, ratio>30-fold)”.

With `Cn1cc2c(n1)-c1ccc(F)cc1COc1cc(cnc1N)-c1c(cnn1C1CCC1)C2` [Example 7, 3-cyclobutyl-16-fluoro-10-methyl-20-oxa-3,4,10,11,23-pentaazapentacyclo[19.3.1.0^2,^6.0^8,^12.0^13,^18]pentacosa-1(24),2(6),4,8,11,13,15,17,21(25),22-decaen-22-amine] the TPM3-NTRK1-wt/CD74-ROS1-G2032R was “A (bin A for very high selectivity, ratio>30-fold)” and the TPM3-NTRK1-wt/EML4-ALK-L1196M-G1202R was “A (bin A for very high selectivity, ratio>30-fold)”.

For `CCn1nnc2c1-c1cnc(N)c(c1)O[C@H](C)c1cc(F)ccc1-n1nc(C(F)(F)F)cc1C2` [Example 107, (19R)-3-ethyl-16-fluoro-19-methyl-10-(trifluoromethyl)-20-oxa-3,4,5,11,12,23-hexaazapentacyclo[19.3.1.0^2,^6.0^8,^12.0^13,^18]pentacosa-1(24),2(6),4,8,10,13,15,17,21(25),22-decaen-22-amine], the TPM3-NTRK1-wt/CD74-ROS1-G2032R was “A (bin A for very high selectivity, ratio>30-fold)”, the TPM3-NTRK1-wt/CD74-ROS1-wt was “A (bin A for very high selectivity, ratio>30-fold)” and the TPM3-NTRK1-wt/EML4-ALK-L1196M-G1202R was “C (bin C for moderate selectivity, ratio≥1)”. The TPM3-NTRK1-wt/EML4-ALK-wt was “C (bin C for moderate selectivity, ratio≥1)”.

In the case of `CCc1nn(CC)c2c1Cc1cn(C)nc1-c1ccc(F)cc1[C@@H](C)Oc1cc-2cnc1N` [Example 158, (19R)-3,5-diethyl-16-fluoro-10,19-dimethyl-20-oxa-3,4,10,11,23-pentaazapentacyclo[19.3.1.0^2,^6.0^8,^12.0^13,^18]pentacosa-1(24),2(6),4,8,11,13,15,17,21(25),22-decaen-22-amine], the TPM3-NTRK1-wt/CD74-ROS1-G2032R is reported as “A (bin A for very high selectivity, ratio>30-fold)”, the TPM3-NTRK1-wt/CD74-ROS1-wt is reported as “A (bin A for very high selectivity, ratio>30-fold)” and the TPM3-NTRK1-wt/EML4-ALK-L1196M-G1202R is reported as “C (bin C for moderate selectivity, ratio≥1)”. For the same molecule, the TPM3-NTRK1-wt/EML4-ALK-wt was “A (bin A for very high selectivity, ratio>30-fold)”.

In the case of `C[C@H]1Oc2cc(cnc2N)-c2c(C#N)nn(C)c2Cc2ccccc2-c2ccc(F)cc21` [Example 117, (20R)-23-amino-17-fluoro-5,20-dimethyl-21-oxa-4,5,24-triazapentacyclo[20.3.1.0^2,^6.0^8,^13.0^14,^19]hexacosa-1(25),2(6),3,8(13),9,11,14,16,18,22(26),23-undecaene-3-carbonitrile], the TPM3-NTRK1-wt/CD74-ROS1-G2032R is reported as “A (bin A for very high selectivity, ratio>30-fold)”, the TPM3-NTRK1-wt/CD74-ROS1-wt is reported as “A (bin A for very high selectivity, ratio>30-fold)” and the TPM3-NTRK1-wt/EML4-ALK-L1196M-G1202R is reported as “B (bin B for high selectivity, ratio>10-fold)”. For the same molecule, the TPM3-NTRK1-wt/EML4-ALK-wt was “A (bin A for very high selectivity, ratio>30-fold)”.

With `CCn1ncc2c1-c1cnc(N)c(c1)O[C@H](C)c1cc(F)ccc1-c1nn(C(C)(C)C)cc1C2` [Example 150, (19R)-10-tert-butyl-3-ethyl-16-fluoro-19-methyl-20-oxa-3,4,10,11,23-pentaazapentacyclo[19.3.1.0^2,^6.0^8,^12.0^13,^18]pentacosa-1(24),2(6),4,8,11,13,15,17,21(25),22-decaen-22-amine] the TPM3-NTRK1-wt/CD74-ROS1-G2032R was “A (bin A for very high selectivity, ratio>30-fold)”, the TPM3-NTRK1-wt/CD74-ROS1-wt was “A (bin A for very high selectivity, ratio>30-fold)” and the TPM3-NTRK1-wt/EML4-ALK-L1196M-G1202R was “C (bin C for moderate selectivity, ratio≥1)”. For the same molecule, the TPM3-NTRK1-wt/EML4-ALK-wt was “B (bin B for high selectivity, ratio>10-fold)”.

In the case of `CCc1nnn2c1-c1cnc(N)c(c1)O[C@H](C)c1cc(F)ccc1-c1nn(C)cc1C2` [Example 23, (19R)-3-ethyl-16-fluoro-10,19-dimethyl-20-oxa-4,5,6,10,11,23-hexaazapentacyclo[19.3.1.0^2,^6.0^8,^12.0^13,^18]pentacosa-1(24),2,4,8,11,13,15,17,21(25),22-decaen-22-amine], the TPM3-NTRK1-wt/CD74-ROS1-G2032R is reported as “A (bin A for very high selectivity, ratio>30-fold)”, the TPM3-NTRK1-wt/CD74-ROS1-wt is reported as “A (bin A for very high selectivity, ratio>30-fold)” and the TPM3-NTRK1-wt/EML4-ALK-L1196M-G1202R is reported as “C (bin C for moderate selectivity, ratio≥1)”. For the same molecule, the TPM3-NTRK1-wt/EML4-ALK-wt was “A (bin A for very high selectivity, ratio>30-fold)”.

For `CC1Oc2cc(cnc2N)-c2c(nn(C)c2C#N)Cc2cnccc2-c2ccc(F)cc21` (centres unmarked) [Example 59, 23-amino-17-fluoro-4,20-dimethyl-21-oxa-4,5,10,24-tetraazapentacyclo[20.3.1.0^2,^6.0^8,^13.0^14,^19]hexacosa-1(25),2,5,8(13),9,11,14,16,18,22(26),23-undecaene-3-carbonitrile], the TPM3-NTRK1-wt/CD74-ROS1-G2032R was “C (bin C for moderate selectivity, ratio≥1)”, the TPM3-NTRK1-wt/CD74-ROS1-wt was “A (bin A for very high selectivity, ratio>30-fold)” and the TPM3-NTRK1-wt/EML4-ALK-L1196M-G1202R was “D (bin D for low selectivity, ratio<1)”.

`C[C@H]1Oc2cc(cnc2N)-c2c(C#N)nn(C)c2Cc2cc(F)cnc2-c2ccc(F)cc21` [Example 105, (20R)-23-amino-10,17-difluoro-5,20-dimethyl-21-oxa-4,5,12,24-tetraazapentacyclo[20.3.1.0^2,^6.0^8,^13.0^14,^19]hexacosa-1(25),2(6),3,8(13),9,11,14,16,18,22(26),23-undecaene-3-carbonitrile] was tested, and the TPM3-NTRK1-wt/CD74-ROS1-G2032R was “A (bin A for very high selectivity, ratio>30-fold)”, the TPM3-NTRK1-wt/CD74-ROS1-wt was “A (bin A for very high selectivity, ratio>30-fold)” and the TPM3-NTRK1-wt/EML4-ALK-L1196M-G1202R was “B (bin B for high selectivity, ratio>10-fold)”. The TPM3-NTRK1-wt/EML4-ALK-wt was “A (bin A for very high selectivity, ratio>30-fold)”.

For `C[C@H]1Oc2cc(cnc2N)-c2c(C#N)ncn2Cc2cn(C)nc2-c2ccc(F)cc21` [Example 13, (19R)-22-amino-16-fluoro-10,19-dimethyl-20-oxa-4,6,10,11,23-pentaazapentacyclo[19.3.1.0^2,^6.0^8,^12.0^13,^18]pentacosa-1(24),2,4,8,11,13,15,17,21(25),22-decaene-3-carbonitrile], the TPM3-NTRK1-wt/CD74-ROS1-G2032R was “A (bin A for very high selectivity, ratio>30-fold)”, the TPM3-NTRK1-wt/CD74-ROS1-wt was “A (bin A for very high selectivity, ratio>30-fold)” and the TPM3-NTRK1-wt/EML4-ALK-L1196M-G1202R was “A (bin A for very high selectivity, ratio>30-fold)”. The TPM3-NTRK1-wt/EML4-ALK-wt was “A (bin A for very high selectivity, ratio>30-fold)”.
